The record followed here is US20030008338A1, “Assay methods and kits therefor” (LumiTech (UK) Limited, priority 2000, published 2003).

Holding throughout (assay type): cell-based
In one assay the test system is Cem-7 cells. Description: AK (adenylate kinase) release bioluminescence assay, Cem-7 cells incubated with dexamethasone. Here is the method: (§1) A number of different cell types have been tested for induction of cytotoxicity with soluble agents. Cytolysis is determined after incubation with the agent, when the cell membrane has lost integrity and AK can ‘leak’ out into the surrounding culture medium. The assay is performed by incubating non-microbial (e.g. mammalian) cells, either cell lines or primary cell types including isolated tumour cells, with the agonist(s) of choice. After an appropriate incubation time the cells are simply removed from the incubator and AK activity determined in the culture supernatant. If the cells have been cultured in clear bottomed, white walled plates (Perkin Elmer Life Sciences) in volumes no greater than 100 μl, then the plates are simply placed in a luminometer equipped with injection facilities and 150 μl of AKR added to each of the wells, where an integral reading of light output is measured over 1 second. When using luminometers without injectors the AKR can be added manually preferably using a multichannel pipette. The light output is read as soon after addition of reagent as possible. The increase in light output over the complete medium control is the result of the leakage of AK from damaged cells as a result of incubation with cytolytic inducing substances.
Example 1: We have investigated 37 different cell lines and models of apoptosis/necrosis induction. One of the first models investigated for this assay was the incubation of Cem-7 cells with dexamethasone. Two different experiments were performed: one experiment where cells at different cell numbers/well were incubated with one concentration of dexamethasone (500 nM, Sigma) for 48 and 72 hours, and another experiment where cells at 5000/well were incubated with increasing concentrations of the agent (0, 10, 25, 50, 75, 100, 150, 200 nM) for 72 hours. The cell suspensions were incubated in 100 μl in triplicate wells of a 96 well clear-bottomed white walled microtitre plate (Perkin Elmer Isoplate™). At the end of the incubation period the plates were assayed for AK activity using the Wallac Microbeta Jet, with 150 μl of AKR added and the RLUs (1 second integral) read at time 0 and every 5 minutes for 45 minutes. […] At 2500 cells per well the activity had increased by 71% from 15 913 RLUs at 48 hours to 27 266 RLUs at 72 hours.

The next assay concerns U937 cells. Description: AK release bioluminescence assay, U937 cells incubated with camptothecin. As for the experimental part: as §1
Example 2: A second model known to induce secondary necrosis is the incubation of U937 cells (ECACC No: 87010802) with camptothecin (Sigma). The cells were set up in triplicate wells of a white Isoplate™ (Perkin Elmer Life Sciences) at serial doubling dilutions of cells with 1000 nM camptothecin. The cells were then incubated with the drug for 4 hours and AK activity was determined as outlined in example 1. […] In the control cells there was a slight increase in AK activity over the complete medium control, but the increase in the presence of the drug was much greater, nearly 3 fold (2.6).

For the next assay, the system named is K562 cells. In words: AK release bioluminescence assay, K562 cells incubated with ionomycin. Further details: cytolysis versus control cells at the lowest concentration: dose or concentration left out as unconfirmed. Here is the method: as §1
Example 3: Ionomycin is a calcium ionophore that acts as a mobile ion carrier for Ca^2+. We investigated increasing concentrations of this agent on K562 cells. As with the previous examples, the cells were set up in 100 μl volumes in triplicate wells of a 96 well Isoplate™. The concentrations of ionomycin (Sigma) used were […]. Cells were incubated for three hours in the presence of the agent prior to determination of AK activity. The data shown in FIG. 7 are for the 1-second integral reading taken at time 0 using the Wallac MicroBeta Jet.

Where [1] appears, read: camptothecin from 50 to 1000 μM, cells at 2500/well.

Consider `C[C@@H]1C[C@H]2[C@@H]3CCC4=CC(=O)C=C[C@]4(C)[C@@]3(F)[C@@H](O)C[C@]2(C)[C@@]1(O)C(=O)CO` [dexamethasone], for which, in the assay on Cem-7 cells (200 nM dexamethasone, 72 hours, 5000 cells/well), the AK release is 16900 RLU. For the same compound, the “increase in AK activity from 48 hours to 72 hours” value in the assay with Cem-7 cells (500 nM dexamethasone, 2500 cells per well) is 71%. Moreover, the AK activity in the assay on Cem-7 cells (500 nM dexamethasone, 48 hours, 2500 cells per well) is 15 913 RLUs; with Cem-7 cells (500 nM dexamethasone, 72 hours, 2500 cells per well) it was 27 266 RLUs.

Regarding `CC[C@@]1(O)C(=O)OCc2c1cc1n(c2=O)Cc2cc3ccccc3nc2-1` [camptothecin], in the assay on U937 cells (1000 nM camptothecin, 4 hours), the “increase in AK activity in the presence of the drug” value is 2.6 fold. Moreover, the “cell numbers at which the increase in activity was seen” value in the assay on U937 cells (1000 nM camptothecin, 4 hours, serial doubling dilutions of cells) is reported as “above 156 /well”. Further, in the assay with U937 cells (setting [1]), the “concentration at which cytolysis appears” value was 100 µM and the “enzyme (AK) activity with increasing concentrations” value is reported as “concentration dependent increase in enzyme activity”.

For `C[C@H](CCC(=O)O)C[C@H](C)C[C@H](C)C(=O)/C=C(\O)[C@H](C)C[C@H](C)C/C=C/[C@@H](C)[C@@H](O)[C@@H](C)[C@@H](O)C[C@@H]1CC[C@@](C)([C@H]2CC[C@@](C)([C@@H](C)O)O2)O1` [Ionomycin], the “AK activity with all concentrations of the agent” value in the assay with K562 cells (FIG. 7, increasing concentrations of ionomycin) is “significant increase in AK activity”. Also, the “effect on AK activity with increasing concentrations” value in the assay on K562 cells (ionomycin 1, 2, 3, 4 and 5 mM, three hours, time 0 reading) is “concentration dependent effect”. Also, in the assay with K562 cells (lowest ionomycin concentration, three hours), the “cytolysis versus control cells at the lowest concentration” value was “significant increase in cytolysis”.
